# Assays:
# [1] = In vitro plasma stability, monkey plasma; assay type: in vitro ADME, monkeys
# [2] = In vitro plasma stability, pig plasma; assay type: in vitro ADME
# [3] = In vitro plasma stability, dog plasma; assay type: in vitro ADME
# [4] = In vitro plasma stability, mouse plasma; assay type: in vitro ADME, mice
# [5] = In vitro plasma stability, human plasma; assay type: in vitro ADME
# [6] = Pharmacokinetics of DON in swine plasma and CSF after i.v. infusion of DON, compound 14b or compound 47; assay type: in vivo; conditions: for CSF-to-plasma ratio of DON: 60 min post-administration; for amount of DON delivered to the CSF relative to DON: CSF at 60 min post-dose
# Procedure: Compound: Compound 47 was dissolved in a sterile saline containing 5% ethanol and 5% Tween 80 on the date of administration.
# Swine: Swine studies were conducted under a protocol approved by the Johns Hopkins Animal Care and Use Committee. Adult, female Gottingen×Yucutan miniature swine (Massachusetts General Hospital, MA) were housed in Johns Hopkins University facilities accredited by the Association for Assessment and Accreditation of Laboratory Animal Care International in compliance with the Animal Welfare Act, Animal Welfare Regulations, and the Public Health Service Policy on the Humane Care and Use of Laboratory Animals. Animals were maintained on a 14-h light and 10-h dark schedule, provided ad libitum water and a commercial miniswine diet (Teklad, Madison, Wis.) with environmental enrichment (fruit/vegetables) twice daily.
# [7] = In vitro liver microsomal stability, human microsomes
# [8] = In vitro liver microsomal stability, pig microsomes
# CD4+ T cells = experiment: Extracellular flux analysis (ECAR, OCR) of CD4+ T cells stimulated with anti-CD3/CD28; assay type: cell-based, 5C.C7 mice; conditions: 2-DG 10 mM; Metformin 50 mM; DON 30 μM; after anti-CD3/CD28
# Procedure: Extracellular flux analysis: Cells were initially plated to XF assay medium, modified DMEM (Seahorse Bioscience) containing 25 mM glucose, 2 mM L-glutamine, and 1 mM sodium pyruvate, and incubated in a non-CO2 incubator at 37° C. for 30 minutes. OCR and ECAR were measured at 37° C. in a XF96 Extracellular Flux Analyzer (Seahorse Bioscience) using manufacturer recommended protocols. After baseline measurements, OCR and ECAR were measured after sequentially adding anti-CD3/CD28 and metabolic reprogramming agents into each well to the indicated final concentrations using the included ports on the XF96 cartridges. All data were collected using the XF Reader software from Seahorse Bioscience.
# OCR is an indicator of mitochondrial OXPHOS, and ECAR is predominantly a measure of lactic acid formed during glycolytic energy metabolism, and thus reflects overall glycolytic flux. Primary, naïve 5C.C7 CD4^+ T cells were incubated with pigeon cytochrome c (PCC) peptide for 48 hrs and then expanded and rested in IL-2 for an additional 5 days to generate previously activated CD4^+ cells. After measuring the baseline bioenergetics of these resting CD4^+ cells, cells were re-stimulated with anti-CD3/CD28 (FIG. 9A and FIG. 9B). […] Upon reaching the peak of glycolytic flux, metabolic reprogramming agents were administered to the cells. 2-DG is a glucose analog that inhibits hexokinase, the first enzyme in the glycolytic pathway (Rowe et al. (2013) Nature Medicine 19(4):488-493). […] Metformin is a commonly used oral hypoglycemic that activates AMPK, inhibits mitochondrial respiratory complex I and promotes fatty acid oxidation (Buzzai et al. (2007) Cancer Research 67(14):6745-6752; El-Mir et al. (2000) The Journal of Biological Chemistry 275(1):223-228).
# CD4+ and CD8+ T cells [9] = experiment: IFN-γ secretion of anti-CD3 stimulated splenocytes (ELISA); assay type: cell-based, C57BL/6 mice; conditions: anti-CD3, 24 h; DON 5 μM; 2-DG 0.6 mM; Metformin 1 mM
# CD4+ and CD8+ T cells [10] = experiment: T cell proliferation (eFluor 670 dilution) of splenocytes stimulated with anti-CD3; assay type: cell-based, C57BL/6 mice; conditions: anti-CD3, 72 h; DON 5 μM; 2-DG 0.6 mM; Metformin 1 mM
# [11] = tested on: antigen-specific CD4+ T cells; assay type: in vivo, mice
# glutaminase = experiment: Glutaminase activity analysis of activated CD4+ T cells (radiolabeled assay); assay type: cell-based, mice; conditions: anti-CD3/CD28, 24 hrs; DON 5 μM
# Procedure: Glutaminase activity analysis: Glutaminase activity measurement was adapted from previously described protocols (Thomas et al. (2013) Biochemical and Biophysical Research Communications 438(2):243-248). Briefly, T cells were lysed in ice-cold potassium phosphate buffer (45 mM, pH 8.2) containing protease inhibitors (Roche, Complete Protease Inhibitor Cocktail, 1 tablet in 50 ml) and incubated with 3H-glutamine (0.03 μM, 0.91 μCi) for 90 min at room temperature. The reactions were carried out in 50 μl reaction volumes in a 96-well microplate. At the end of the reaction period, the assay was terminated upon the addition of imidazole buffer (20 mM, pH 7). 96-well spin columns packed with strong anion ion-exchange resin (Bio-Rad, AG® 1-X2 Resin, 200-400 mesh, chloride form) were used to separate the substrate and the reaction product. Unreacted ^3H-glutamine was removed by washing with imidazole buffer. ^3H-glutamate, the reaction product, was then eluted with 0.1 N HCl and analyzed for radioactivity using Perkin Elmer's TopCount instrument in conjunction with their 96-well LumaPlates. […]
# [12] = tested on: Balb/c to C57BL/6 heart allograft; experiment: Murine heterotopic heart transplantation (Balb/c to C57BL/6); design: species or system mice; conditions: mouse, in vivo
# Procedure: Murine heterotopic heart transplantation: BALB/c mice served as heart donors and C57BL/6 mice serve as allograft recipients. Either abdominal or cervical heterotopic heart transplantation was performed according to previously published methods (Corry et al. (1973) Transplantation 16(4):343-350; Oberhube et al. (2014) J Vis Exp 92:e50753). Functionality of the transplanted heart was monitored daily by palpation. Clinical rejection was defined by cessation of palpable heartbeats and confirmed by autopsy. Loss of graft function within 48 hrs of transplantation was considered as a technical failure, and animals in which this occurred were omitted from the analysis.
# Finally, this metabolic reprogramming therapy with at least three metabolic reprogramming agents was employed in a Balb/c to C57BL/6 heart transplantation, which is a vascularized solid organ transplantation model. Strikingly, when recipient mice were treated with metabolic reprogramming therapy with at least three metabolic reprogramming agents, the grafted hearts continued beating for more than 100 days post-transplantation without rejection (FIG. 15F).
# [13] = tested on: Balb/c to C57BL/6 skin allograft; experiment: Murine skin transplantation (Balb/c to C57BL/6); assay type: in vivo, mice
# [14] = tested on: mouse model of Acute Respiratory Distress Syndrome (ARDS); experiment: Mouse model of acute respiratory distress syndrome (ARDS); assay type: in vivo, mice; conditions: treated on day 2 & 4
# From the text: FIG. 17A, FIG. 17B, and FIG. 17C show targeting glutamine in a mouse model of acute respiratory distress syndrome (ARDS). Mice were challenged with Ips (FIG. 17A) to induce ARDS and treated with DON on day 2 & 4.
# [15] = tested on: antigen-specific CD8+ T cells; assay type: in vivo, mice; conditions: DON added to 2DG+Metformin therapy
# [16] = tested on: arthritis in a mouse model; experiment: Arthritis mouse model; conditions: in vivo
# cerebral malaria = experiment: Cerebral malaria in mice; assay type: in vivo; conditions: treated on day 5 post infection and on day 6, every other day
# Procedure: FIG. 19A and FIG. 19B show the targeting of glutamine metabolism to cure Cerebral malaria. Mice were treated on day 5 post infection and on day 6 (12 hours before subsequent death) with DON every other day.
# [17] = tested on: pneumonitis in a mouse model; experiment: Pneumonitis mouse model; conditions: in vivo
# [18] = tested on: mouse model of Pulmonary Fibrosis; experiment: Mouse model of pulmonary fibrosis (intratracheal bleomycin); design: species or system mice; conditions: in vivo
# Procedure: Mice were treated with intratracheal bleomycin to induce fibrosis.
structure (smiles),measurement,setting,value
"CC(C)OC(=O)[C@H](CCC(=O)C=[N+]=[N-])NC(=O)O[C@H](C)OC(=O)C(C)(C)C (single isomer, unassigned) [Compound 14b]",plasma stability,[1],stable
same,plasma stability,[2],stable
same,plasma stability,[3],stable
same,plasma stability,[4],rapidly metabolized
same,plasma stability,[5],stable
same,CSF-to-plasma ratio of DON,[6],increased CSF-to-plasma ratios
same,amount of DON delivered to the CSF relative to DON,[6],substantially higher amounts of DON
CC(=O)N[C@@H](Cc1c[nH]c2ccccc12)C(=O)N[C@@H](CCC(=O)C=[N+]=[N-])C(=O)OC(C)C [Compound 60a],liver microsomal stability,[7],moderate-high stability
same,liver microsomal stability,[8],moderate-high stability
CC(C)C[C@H](N)C(=O)N[C@@H](CCC(=O)C=[N+]=[N-])C(=O)OC(C)C [Compound 9],liver microsomal stability,[7],moderate-high stability
same,liver microsomal stability,[8],moderate-high stability
"O=CC[C@@H](O)[C@H](O)[C@H](O)CO [Compound 2-DG, 2-deoxy-D-glucose]",ECAR (glycolytic flux) of activated T cells,CD4+ T cells,sharp decrease
same,OCR (OXPHOS) of activated T cells,CD4+ T cells,insignificant increase
same,IFN-γ (cytokine) production,CD4+ and CD8+ T cells [9],inhibited T cell proliferation and cytokine production in a dose-dependent manner
same,T cell proliferation,CD4+ and CD8+ T cells [10],inhibited T cell proliferation and cytokine production in a dose-dependent manner
"[N-]=[N+]=CC(=O)CC[C@H](N)C(=O)O [DON, 6-Diazo-5-oxo-L-norleucine]",CD4+ T cell effector function,[11]; DON added to 2DG+Metformin therapy,very potent inhibition
same,frequency of Foxp3+ CD4+ T cells (Tregs) in vivo,[11]; relative frequency,increased the relative frequency of regulatory T cells
same,glutaminase activity of activated T cells,glutaminase,significantly abrogated
same,ECAR (glycolytic flux) of activated T cells,CD4+ T cells,did not have an obvious impact
same,OCR (OXPHOS) of activated T cells,CD4+ T cells,did not have an obvious impact
same,IFN-γ (cytokine) production,CD4+ and CD8+ T cells [9],decreased
same,T cell proliferation,CD4+ and CD8+ T cells [10],decreased
same,heart transplant rejection,[12],able to prevent heart transplant rejection
same,skin allograft rejection / graft survival,[13]; fully MHC-mismatched,prevents transplant rejection and prolongs skin graft survival
same,skin graft median survival time (MST),"[13]; treatment from day 0 until rejection, no treatment 11 days",22 days
same,lung damage,[14],less lung damage
same,recovery (weight gain),[14],more rapid recovery (weight gain)
same,CD8+ T cell effector function,[15],very potent inhibition
same,arthritis,[16],treated arthritis
same,death (survival),cerebral malaria,prevent death at such a late stage of disease
same,pneumonitis,[17],treated pneumonitis
same,lung damage,[18],markedly decreased lung damage
same,recruitment/generation of lung fibrocytes,[18],decrease in the recruitment/generation of lung fibrocytes
CC(C)OC(=O)[C@H](CCC(=O)C=[N+]=[N-])NC(=O)OC(OC(=O)C(C)(C)C)c1ccccc1 (some centres unmarked) [Compound 47],CSF-to-plasma ratio of DON,[6],increased CSF-to-plasma ratios
same,amount of DON delivered to the CSF relative to DON,[6],substantially higher amounts of DON
CC(C)OC(=O)[C@H](CCC(=O)C=[N+]=[N-])NC(=O)[C@@H](N)Cc1c[nH]c2ccccc12 [Compound 38a],liver microsomal stability,[7],moderate-high stability
same,liver microsomal stability,[8],moderate-high stability
CN(C)C(=N)N=C(N)N [metformin],ECAR (glycolytic flux) of activated T cells,CD4+ T cells,increase
same,OCR (OXPHOS) of activated T cells,CD4+ T cells,marked suppression
same,IFN-γ (cytokine) production,CD4+ and CD8+ T cells [9],inhibited T cell proliferation and cytokine production in a dose-dependent manner
same,T cell proliferation,CD4+ and CD8+ T cells [10],inhibited T cell proliferation and cytokine production in a dose-dependent manner

# Source: US10568868B2, “Methods and compositions for treating metabolic reprogramming disorders” (THE JOHNS HOPKINS UNIVERSITY, priority 2015, dated 2020)
